Entries after “also recorded” stand apart in the source; their conditions may differ.
Assays:
miR17-5 = experiment: Relative miR17-5 expression in PAECs (qPCR); format: cell-based, human; settings: 15 μM Enzastaurin 24 hours
miR27a = experiment: Relative miR27a expression in PAECs (qPCR); format: cell-based, human; settings: 15 μM Enzastaurin 24 hours
PASMC = experiment: MTT proliferation assay in PASMC; format: cell-based, human; settings: siFHIT PASMC, Enzastaurin 5 M as printed
[1] = test system: hypoxia-induced experimental PAH in C57BL/6 and BMPR2+/− C57BL/6 mice; experiment: Hypoxia-induced experimental PAH in wildtype and Bmpr2+/− mice; format: in vivo, mouse
Procedure: Right Ventricular (RV) Systolic Pressure was measured through right jugular vein catheterization and RV hypertrophy was assessed by the weight ratio of the RV to left ventricle+septum. Vessel loss and muscularization of lung vessels were visualized by MOVAT pentachrome stain. […] Arrows indicate vessel position. FIG. 3F, Representative MOVAT lung histology depicting vessel structure. Arrows indicate vessel position.
(§1) Fhit homozygous (−/−) mice were obtained from Kay F. Huebner (Ohio State University). Bmpr2+/− mice were a gift from Marlene Rabinovitch (Stanford University). Adult wildtype C57BL/6 mice, Bmpr2+/− or Fhit−/− mice at 8-10 weeks of age were housed in chronic hypoxia (10% O2) for 3 weeks, followed by a recovery period of 4 weeks in normoxia (21% O2). […] Development of experimental PH was induced in adult Sprague Dawley rats (8 weeks old, 180-220 g) through a subcutaneous dose of the VEGFR-2 inhibitor SUGEN5416 (20 mg/kg body weight), followed by exposure to chronic hypoxia (10% O2) for 3 weeks and normoxia for 5 weeks (21% O2), as previously described(12). […] Right Ventricular (RV) Systolic Pressure was measured through right jugular vein catheterization, and RV hypertrophy (RVH) was assessed by the weight ratio of the RV to left ventricle and septum (LV+S).
FIG. 24E, Representative MOVAT lung histology. Arrows indicate vessel position. FIGS. 24F-24G, Representative MOVAT lung histology of large (FIG. 24F) and small vessels (FIG. 24G) respectively. Arrows indicate vessel position.

[2] = test system: FHIT−/− C57BL/6 mice in hypoxia; experiment: Hypoxia-induced PH in Fhit−/− mice; format: in vivo, mouse
Procedure: Experimental PAH will be assessed based on Right Ventricular (RV) Systolic Pressure measurements through right jugular vein catheterization and RV hypertrophy was assessed by the weight ratio of the RV to left ventricle+septum. Vessel loss and muscularization of lung vessels will be visualized by MOVAT pentachrome stain or IF staining with αSMA and avWF antibodies.
as §1
FIGS. 23B-23C, ΔΔCt analysis of mRNA expression in lung tissue.

[3] = test system: SUGEN5416/Hypoxia/Normoxia rats; experiment: SUGEN5416/Hypoxia/Normoxia rat model of experimental PH; format: in vivo
Procedure: Experimental PAH was induced in male Sasco Sprague Dawley rats by subcutaneous injection of 20 mg/kg body weight SU5416. […] Echocardiography was performed to assess development of RV hypertrophy and Ejection Fraction. Right Ventricular (RV) Systolic Pressure was measured through right jugular vein catheterization and RV hypertrophy was assessed by the weight ratio of the RV to left ventricle+septum. Vessel loss and muscularization of lung vessels were visualized by MOVAT pentachrome stain. […] FIG. 4F, Representative MOVAT lung histology. Fhit homozygous (−/−) mice were obtained from Kay F. Huebner (Ohio State University). Bmpr2+/− mice were a gift from Marlene Rabinovitch (Stanford University). Adult wildtype C57BL/6 mice, Bmpr2+/− or Fhit−/− mice at 8-10 weeks of age were housed in chronic hypoxia (10% O2) for 3 weeks, followed by a recovery period of 4 weeks in normoxia (21% O2). […] Development of experimental PH was induced in adult Sprague Dawley rats (8 weeks old, 180-220 g) through a subcutaneous dose of the VEGFR-2 inhibitor SUGEN5416 (20 mg/kg body weight), followed by exposure to chronic hypoxia (10% O2) for 3 weeks and normoxia for 5 weeks (21% O2), as previously described(12). […] Right Ventricular (RV) Systolic Pressure was measured through right jugular vein catheterization, and RV hypertrophy (RVH) was assessed by the weight ratio of the RV to left ventricle and septum (LV+S). Murine and rat lung tissue was fixed in paraformaldehyde (PFA) for 48 hours and preserved in EtOH. Paraffin embedded lung slides were stained with a Movat pentachrome stain (Histo-Tec, Hayward, Calif.), where vessel loss and muscularization of pulmonary vessels was visualized by light microscopy. Fluorescent immunocytochemistry on lung sections was performed on deparaffinized (Histoclear II, National Diagnostics) tissue sections with primary antibodies for von-Willebrand factor (vWF) and alpha smooth muscle actin (αSMA) following antigen-retrieval. Human PAH lung tissue was stained for anti-BMPR2 (Ab130206, Abcam) and anti-FHIT (kind gift of Kay F. Huebner, Ohio State University). PFA-fixed paraffin-embedded heart tissue was stained with trichrome staining (Histo-Tec, Hayward, Calif.) to visualize fibrotic transformation. Sprague Dawley rats, were subcutaneously injected with 20 mg/kg SUGEN5416 once and housed in chronic hypoxia (10%, 3 weeks), followed by 5 weeks in normoxia as previously described(41). […] Hemodynamic assessment of the animals (echocardiography, right heart catheter) was performed before sacrifice and tissue collection. […] Experimental PH was induced in male Sprague Dawley rats by subcutaneous injection of 20 mg/kg body weight SU5416. […] FIG. 11F, Representative MOVAT lung histology, highlighting large pulmonary vessels.

[4] = 3 weeks hypoxia, 5 mg/kg daily by mini-osmotic pump, C57BL/6 and BMPR2+/− mice
[5] = 3 weeks hypoxia, 15 mg/kg/day by mini-osmotic pump, Bmpr2+/− and wildtype mice
[6] = C57BL/6 FHIT−/− mice, 3 weeks hypoxia, 5 mg/kg daily by osmotic pump, method in future tense
[7] = Fhit−/− mice, hypoxia, 5 mg/kg/day via mini osmotic pump
[8] = 5 mg/kg daily oral gavage for 3 weeks, vs vehicle
[9] = 5 mg/kg/day oral gavage for 3 weeks, qPCR

## Cn1cc(C2=C(c3cn(C4CCN(Cc5ccccn5)CC4)c4ccccc34)C(=O)NC2=O)c2ccccc21 [Enzastaurin, 3-(1-methyl-1H-indol-3-yl)-4-[1-[1-(pyridin-2-ylmethyl)piperidin-4-yl]-1H-indol-3-yl]-1H-pyrrole-2,5-dione]
miR17-5
  siFHIT-mediated increase in miR17-5 expression: inhibited
miR27a
  siFHIT-mediated increase in miR27a expression: inhibited
PASMC
  Increased PASMC proliferation induced by reductions in FHIT (MTT): rescued
[1]; 2-week treatment, 15 mg/kg/day, Bmpr2+/− and wild-type C57BL/6 mice
  Hypoxia-induced PH (changes in RVSP, RVH and pulmonary physiology): attenuated
[1]; 3 weeks hypoxia, 5 mg/kg daily by mini-osmotic pump, vs hypoxia vehicle control
  Right ventricle systolic pressure (RVSP): partial reduction
[1]; [4]
  Full or partial muscularization of AW and AD vessels: significantly ameliorated
  Loss of alveolar wall (AW) and alveolar duct (AD) pulmonary vessels: significantly ameliorated
  Right ventricle (RV) hypertrophy (RV/LV+S): substantial reduction
[1]; [5]
  Muscularization of distal vessels: prevented
  RVH increase: prevented
  RVSP increase: prevented
  Vascular rarefaction: prevented
[2]; [6]
  FHIT levels (FIG. 5C): fails to increase FHIT levels
  PKC levels (FIG. 5C): effectively downregulating PKC levels
  Pulmonary hypertension development (FIG. 5C): does not protect from pulmonary hypertension development
[2]; [7]
  BMPR2 expression in whole lung tissue: increased
  FHIT mRNA expression in lung tissue: unmeasurably low
  ID1 expression in whole lung tissue: increased
  PH: improved PH
[2]; male FHIT−/− mice, 3 weeks hypoxia, 5 mg/kg by mini-osmotic pump, vs Sham control
  RVSP: protects from increased RVSP
[3]; 5 mg/kg daily oral gavage
  Cardiac output: improves
[3]; [8]
  Cardiac / RV fibrosis: reverses; also recorded: potently reduced
  Full or partial remodeling / muscularization of small and large vessels: substantially and significantly reversed; also recorded: potently reduced
  Loss of alveolar wall (AW) and alveolar duct (AD) pulmonary vessels: substantially and significantly reversed
  Right ventricle hypertrophy (RVH): lower; also recorded: potently reduced
  Vascular occlusion: reverses; also recorded: nearly entirely reversed; also recorded: significantly less evidence
[3]; 5 mg/kg daily oral gavage for 3 weeks, vs vehicle treated controls with experimental PAH
  Right ventricle systolic pressure (RVSP): lower
[3]; 5 mg/kg daily oral gavage, vs untreated controls
  Emphysematous changes (linear intercept analysis of MOVAT lung histology): significantly less evidence
[3]; 5 mg/kg/day oral gavage for 3 weeks
  Reduction of RVSP: over 30 mmHg
[3]; [9]
  BMPR2 expression in whole lung: increased
  FHIT expression in whole lung: increased
[3]; before and after 3 weeks of 5 mg/kg daily oral gavage
  LVEF (%) by Echocardiography: improvement
[3]; low-dose Enzastaurin (5 mg/kg/day)
  SUGEN5416/Hypoxia/Normoxia-induced lung and RV damage: potently reversed

Reference: patent US11413280B2 (The Board of Trustees of the Leland Stanford Junior …, priority 2017, dated 2022)
